{
  "source": "patent US20260207481A1",
  "about": "“INTRANASAL […] OF C[…] TREAT CENTRAL NERVOUS SYSTEM DISORDERS” (Nose to Brain Therapeutics LLC, priority 2019, published 2026)",
  "origin": "cited, not measured here",
  "key": {"[1]": {"conditions": "oral mucosal sprays compared to IV administration (FIG. 2)"}, "CB2": {"target": "CB2 (Homo sapiens, UniProt P34972)", "sequence (P34972 whole entry)": "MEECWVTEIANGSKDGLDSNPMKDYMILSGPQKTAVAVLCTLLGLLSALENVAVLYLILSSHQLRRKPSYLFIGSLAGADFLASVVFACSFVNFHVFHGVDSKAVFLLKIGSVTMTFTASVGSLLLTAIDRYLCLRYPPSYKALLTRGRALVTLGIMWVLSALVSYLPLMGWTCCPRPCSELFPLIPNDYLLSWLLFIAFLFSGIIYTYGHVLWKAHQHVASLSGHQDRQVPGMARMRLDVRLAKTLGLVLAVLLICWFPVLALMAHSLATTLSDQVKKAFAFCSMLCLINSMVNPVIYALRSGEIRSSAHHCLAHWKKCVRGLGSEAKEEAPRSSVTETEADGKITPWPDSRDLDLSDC"}},
  "data": [
    {"molecule": "C=C(C)[C@@H]1CCC(C)=C[C@H]1c1c(O)cc(CCCCC)cc1O", "note": "[CBD, Cannabidiol]", "values": [
      {"measurement": "Cmax", "setting": "[1]", "value": "poor"},
      {"measurement": "binding affinity to CB2", "setting": "CB2", "value": "minimal"}
    ]}
  ]
}
